The IC50 is the point on the concentration scale where inhibition reaches its midpoint.

Chain of POLRMT (O00411 42-1230): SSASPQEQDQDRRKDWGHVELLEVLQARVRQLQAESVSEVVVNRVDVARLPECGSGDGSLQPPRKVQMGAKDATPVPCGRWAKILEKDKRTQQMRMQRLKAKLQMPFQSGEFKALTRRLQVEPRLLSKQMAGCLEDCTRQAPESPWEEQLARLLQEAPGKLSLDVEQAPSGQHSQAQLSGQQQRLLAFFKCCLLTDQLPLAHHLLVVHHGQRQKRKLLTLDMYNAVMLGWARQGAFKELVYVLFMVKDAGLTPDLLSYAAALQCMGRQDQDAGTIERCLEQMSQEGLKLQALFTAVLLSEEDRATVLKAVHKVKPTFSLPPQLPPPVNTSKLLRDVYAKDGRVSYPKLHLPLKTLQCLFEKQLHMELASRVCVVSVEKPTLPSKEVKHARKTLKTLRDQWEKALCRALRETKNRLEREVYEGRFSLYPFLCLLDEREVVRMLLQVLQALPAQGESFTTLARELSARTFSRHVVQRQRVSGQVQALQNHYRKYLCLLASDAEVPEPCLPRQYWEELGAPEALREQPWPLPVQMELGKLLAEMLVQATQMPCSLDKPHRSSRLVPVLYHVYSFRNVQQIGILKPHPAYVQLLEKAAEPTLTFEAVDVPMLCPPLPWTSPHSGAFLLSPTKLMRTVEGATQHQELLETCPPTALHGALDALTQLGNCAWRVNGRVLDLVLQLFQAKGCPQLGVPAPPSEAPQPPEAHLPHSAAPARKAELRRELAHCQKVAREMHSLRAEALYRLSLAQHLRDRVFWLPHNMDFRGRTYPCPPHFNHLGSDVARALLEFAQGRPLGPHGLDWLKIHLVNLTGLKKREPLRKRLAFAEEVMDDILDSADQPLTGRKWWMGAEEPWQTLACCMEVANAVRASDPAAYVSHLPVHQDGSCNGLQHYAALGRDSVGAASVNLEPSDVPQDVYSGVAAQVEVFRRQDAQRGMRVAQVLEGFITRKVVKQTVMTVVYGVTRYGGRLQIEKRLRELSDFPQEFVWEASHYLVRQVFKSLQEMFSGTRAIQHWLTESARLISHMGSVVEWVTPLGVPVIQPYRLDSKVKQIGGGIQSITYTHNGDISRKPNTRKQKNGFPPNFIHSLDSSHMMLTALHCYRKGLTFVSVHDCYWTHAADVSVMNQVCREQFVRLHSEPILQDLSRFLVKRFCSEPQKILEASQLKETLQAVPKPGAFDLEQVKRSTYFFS

For the assay, the target named is POLRMT (Homo sapiens (Human), UniProt O00411). The experiment in a line: homogeneous TR-FRET assay of mitochondrial transcription (inhibition of POLRMT). Conditions: 7.5 nM POLRMT, 15 nM TFB2M, 30 nM TFAM, 0.5 nM DNA template, 500 μM NTPs, 37° C., 60 minutes. It is filed as biochemical. Put shortly:
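Human POLRMT (7.5 nM) with TFB2M (15 nM), TFAM (30 nM), 0.5 nM linearized LSP plasmid template and 500 μM NTPs in pH 7.5 Tris/MgCl2 buffer, 60 min at 37 °C. Stopped with EDTA/high-salt; 407 bp transcript detected by hybridized Europium/ATTO647N probes. 665/620 nm ratio gives activity.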
For orientation: Time-resolved FRET reads energy transfer from a long-lived donor to a nearby acceptor.
`COC(=O)C(COC(F)(F)F)Oc1ccc2c(-c3ccccc3C)cc(=O)oc2c1` (stereo not drawn) [Example 105, methyl 2-((2-oxo-4-(o-tolyl)-2H-chromen-7-yl)oxy)-3-(trifluoromethoxy)propanoate]: it took 40 nM to reach half-maximal inhibition (IC50). In the case of `Cc1ccccc1-c1cc(=O)oc2cc(OC(COC(F)(F)F)C(=O)O)ccc12` (stereo not drawn) [Example 106, 2-((2-oxo-4-(o-tolyl)-2H-chromen-7-yl)oxy)-3-(trifluoromethoxy)propanoic acid], the IC50 stood at 30 nM. With `Cc1cccc(C)c1-c1cc(=O)oc2cc(OCC#N)ccc12` [Example 107, 2-((4-(2,6-dimethylphenyl)-2-oxo-2H-chromen-7-yl)oxy)acetonitrile], half-maximal inhibition (IC50) was put at 30 nM. As to `Cc1ccccc1-c1cc(=O)oc2cc(OCC(N)=O)ccc12` [Example 108, 2-((2-oxo-4-(o-tolyl)-2H-chromen-7-yl)oxy)acetamide], the IC50 worked out at 200 nM. `Cc1ccccc1-c1cc(=O)oc2cc(OC(C)C(F)(F)F)ccc12` (stereo not drawn) [Example 109, 4-(o-tolyl)-7-((1,1,1-trifluoropropan-2-yl)oxy)-2H-chromen-2-one] had an IC50 of 300 nM. `C[C@@H](Oc1ccc2c(-c3ccc(F)cc3Cl)cc(=O)oc2c1)C(=O)N1CCS(=O)(=O)CC1` [Example 110, (R)-4-(2-chloro-4-fluorophenyl)-7-((1-(1,1-dioxidothiomorpholino)-1-oxopropan-2-yl)oxy)-2H-chromen-2-one] returned an IC50 of 500 nM. The compound `Cc1ccccc1-c1cc(=O)oc2cc(O[C@H](C)C(=O)N3CCS(=O)(=O)CC3)ccc12` [Example 111, (R)-7-((1-(1,1-dioxidothiomorpholino)-1-oxopropan-2-yl)oxy)-4-(o-tolyl)-2H-chromen-2-one] registered a half-maximal inhibitory concentration (IC50) of 200 nM. Compound `Cc1cccc(C)c1-c1cc(=O)oc2cc(O[C@H](C)C(=O)N3CCS(=O)(=O)CC3)ccc12` [Example 112, (R)-4-(2,6-dimethylphenyl)-7-((1-(1,1-dioxidothiomorpholino)-1-oxopropan-2-yl)oxy)-2H-chromen-2-one] had a half-maximal inhibitory concentration (IC50) of 65000 nM.

Regarding `CCCOc1ccc2c(-c3ccccc3)cc(=O)oc2c1` [Example 113, 4-phenyl-7-propoxy-2H-chromen-2-one], the IC50 turned out to be 4000 nM.

The record behind these values is patent publication US20240368106A1, “HYDROXY AND ALKOXY COUMARINS AS MODULATORS OF POLRMT” (Pretzel Therapeutics, Inc., priority 2021, published 2024).
